The source of these data is patent publication US12630565B2, “DNA-dependent protein kinase inhibitor” (DIZAL (JIANGSU) PHARMACEUTICAL CO., LTD., priority 2019, dated 2026).

SMILES strings stand for the structures.

Series [1] has as its target Full length human DNAPK protein (Homo sapiens, UniProt P78527). Description: DNA-PK enzymatic assay (TR-FRET). The class given is biochemical. As to conditions: 10 μM ATP, 1.6 μM peptide substrate. For orientation: Time-resolved FRET reads energy transfer from a long-lived donor to a nearby acceptor.
The test system of the next series is Rat hepatocyte. Description: Metabolic stability assay (rat hepatocyte Clint). In kind it is in vitro ADME. As to conditions: 1 μM compound, cryopreserved hepatocytes 1 million cells per mL. The method in brief: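 Compound at 1 μM incubated with cryopreserved rat hepatocytes, 1 million cells/mL, sampled 0–120 min with acetonitrile quench and LC-MS/MS quantitation. CLint (μL/min/E6) derived from elimination rate constant and half-life of parent disappearance, scaled by cell concentration.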

Series [2] in a line: Metabolic stability assay (human microsomal Clint). In kind it is in vitro ADME. As to conditions: human, pooled human liver microsomes, pH 7.4, 1 μM compound, 1 mg/mL microsomes, 1 mM NADPH, 37° C. In a few lines:
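Compound (1 μM) incubated at 37 °C with pooled human liver microsomes (1 mg/mL) and 1 mM NADPH in 100 mM phosphate, pH 7.4. Samples quenched in acetonitrile at 0–30 min and analysed by LC-MS/MS for parent loss. CLint reported in μl/min/mg.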
Background: Liver microsomes are vesicles of endoplasmic reticulum, rich in cytochrome P450 enzymes.

For a further series, the system named is MDR1, BCRP. Description: MDCKII-MDR1-BCRP efflux assay. In kind it is in vitro ADME. As to conditions: dog, pH 7.4, 5 μM compound, HBSS pH 7.4, read-out: MDCK-Mdr1-BCRP efflux ratio. The method in brief:
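Bidirectional (A-B, B-A) transport of 5 μM compound across MDCKII-MDR1-BCRP monolayers in HBSS, 25 mM HEPES pH 7.4, ~37° C. for 120 min, triplicate; donor and receiver concentrations measured, monolayer integrity checked with Lucifer yellow. Papp and efflux ratio calculated.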

For the compound `Cc1cc2ncnn2cc1Nc1ncc2c(C)nn([C@H]3CC[C@@H](O)CC3)c2n1` [Example 32, (1s,4s)-4-(3-methyl-6-((7-methyl-[1,2,4]triazolo[1,5-a]pyridin-6-yl)amino)-1H-pyrazolo[3,4-d]pyrimidin-1-yl)cyclohexan-1-ol], the IC50 (in general, the midpoint of a concentration-inhibition curve) in series [1] came out at 1.9 nM. In addition, the “Rat hepatocyte CLint (μl/min/10^−6 cells)” value (from here on “Rat hepatocyte CLint”) in the series with Rat hepatocyte stood at 11.5 μl/min/10^−6 cells. Also, the microsomal CLint (usually the rate of metabolic loss divided by the concentration) at 1 μM in series [2] was 9.1 µL/min/mg. For the same compound, in the series with MDR1, BCRP, the efflux ratio at 120 min, 5 μM was 9.4.
The matching figures for `Cc1cc2ncnn2cc1Nc1ncc2c(C)nn(C3CCC4(CC3)CC4)c2n1` [Example 37, 3-methyl-N-(7-methyl-[1,2,4]triazolo[1,5-a]pyridin-6-yl)-1-(spiro[2.5]octan-6-yl)-1H-pyrazolo[3,4-d]pyrimidin-6-amine]: 0.9 nM, 71.1 μl/min/10^−6 cells, 200 µL/min/mg and 0.6.
The matching figures for `Cc1cc2ncnn2cc1Nc1ncc2c(C)nn(CC3CC3)c2n1` [Example 38, 1-(cyclopropylmethyl)-3-methyl-N-(7-methyl-[1,2,4]triazolo[1,5-a]pyridin-6-yl)-1H-pyrazolo[3,4-d]pyrimidin-6-amine]: 11.1 nM, 15.3 μl/min/10^−6 cells, 34.2 µL/min/mg and 1.4.
In series [1], `Cc1cc2ncnn2cc1Nc1ncc2c(C)nn([C@H]3C[C@H](C)C3)c2n1` [Example 39, 3-methyl-N-(7-methyl-[1,2,4]triazolo[1,5-a]pyridin-6-yl)-1-((1r,3r)-3-methylcyclobutyl)-1H-pyrazolo[3,4-d]pyrimidin-6-amine] returned an IC50 of 2.1 nM. Moreover, in the series with Rat hepatocyte, the “Rat hepatocyte CLint” value is recorded as 153.3 μl/min/10^−6 cells. Moreover, the microsomal CLint at 1 μM in series [2] turned out to be 151 µL/min/mg. Also, the efflux ratio at 120 min, 5 μM in the series with MDR1, BCRP amounted to 0.9.
The compound `Cc1cc2ncnn2cc1Nc1ncc2c(C)nn([C@H]3C[C@@H](C)C3)c2n1` [Example 40, 3-methyl-N-(7-methyl-[1,2,4]triazolo[1,5-a]pyridin-6-yl)-1-((1s,3s)-3-methylcyclobutyl)-1H-pyrazolo[3,4-d]pyrimidin-6-amine] displayed an IC50 in series [1] of 4.2 nM. For the same compound, the “Rat hepatocyte CLint” value in the series with Rat hepatocyte stood at 144.4 μl/min/10^−6 cells. In addition, the microsomal CLint at 1 μM in series [2] amounted to 125 µL/min/mg. In addition, the efflux ratio at 120 min, 5 μM in the series with MDR1, BCRP worked out at 0.9.
Taken in the same sequence, the figures for `Cc1cc2ncnn2cc1Nc1ncc2c(C)nn(C3CC4(C3)CC(F)(F)C4)c2n1` [Example 41, 1-(6,6-difluorospiro[3.3]heptan-2-yl)-3-methyl-N-(7-methyl-[1,2,4]triazolo[1,5-a]pyridin-6-yl)-1H-pyrazolo[3,4-d]pyrimidin-6-amine] were 1.4 nM, 65.5 μl/min/10^−6 cells, 216 µL/min/mg and 1.5.
The matching figures for `Cc1cc2ncnn2cc1Nc1ncc2c(C)nn(C3CC4(COC4)C3)c2n1` [Example 42, 3-methyl-N-(7-methyl-[1,2,4]triazolo[1,5-a]pyridin-6-yl)-1-(2-oxaspiro[3.3]heptan-6-yl)-1H-pyrazolo[3,4-d]pyrimidin-6-amine]: 7.5 nM, 34.2 μl/min/10^−6 cells, 19.5 µL/min/mg and 4.8.
The matching figures for `Cc1cc2ncnn2cc1Nc1ncc2c(C)nn(C3COC3)c2n1` [Example 44, 3-methyl-N-(7-methyl-[1,2,4]triazolo[1,5-a]pyridin-6-yl)-1-(oxetan-3-yl)-1H-pyrazolo[3,4-d]pyrimidin-6-amine]: 24 nM, 1.9 μl/min/10^−6 cells, 8.8 µL/min/mg and 4.3.
In series [1], `Cc1cc2ncnn2cc1Nc1ncc2c(C)nn(CC(F)F)c2n1` [Example 57, 1-(2,2-difluoroethyl)-3-methyl-N-(7-methyl-[1,2,4]triazolo[1,5-a]pyridin-6-yl)-1H-pyrazolo[3,4-d]pyrimidin-6-amine] displayed a half-maximal inhibitory concentration (IC50) of 12.2 nM. The “Rat hepatocyte CLint” value in the series on Rat hepatocyte came out at 4.2 μl/min/10^−6 cells. This compound also registered an intrinsic metabolic clearance (microsomal CLint) at 1 μM in series [2] of 20.9 µL/min/mg. In the series with MDR1, BCRP, the efflux ratio at 120 min, 5 μM amounted to 1.6.
Taken in the same sequence, the figures for `Cc1cc2ncnn2cc1Nc1ncc2c(C)nn(CCCC(F)(F)F)c2n1` [Example 58, 3-methyl-N-(7-methyl-[1,2,4]triazolo[1,5-a]pyridin-6-yl)-1-(4,4,4-trifluorobutyl)-1H-pyrazolo[3,4-d]pyrimidin-6-amine] were 2.2 nM, 32.9 μl/min/10^−6 cells, 70.8 µL/min/mg and 1.9.
The matching figures for `Cc1cc2ncnn2cc1Nc1ncc2c(C)nn(C(C)C)c2n1` [Example 59, 1-isopropyl-3-methyl-N-(7-methyl-[1,2,4]triazolo[1,5-a]pyridin-6-yl)-1H-pyrazolo[3,4-d]pyrimidin-6-amine]: 4.5 nM, 5.5 μl/min/10^−6 cells, 20.2 µL/min/mg and 0.7.
Taken in the same sequence, the figures for `Cc1cc2nccn2cc1Nc1ncc2c(C)nn(C(C)C)c2n1` [Example 60, 1-isopropyl-3-methyl-N-(7-methylimidazo[1,2-a]pyridin-6-yl)-1H-pyrazolo[3,4-d]pyrimidin-6-amine] were 13.5 nM, 22.7 μl/min/10^−6 cells, 20.4 µL/min/mg and 0.7.
Take `COCCn1nc(C)c2cnc(Nc3cn4ncnc4cc3C)nc21` [Example 63, 1-(2-methoxyethyl)-3-methyl-N-(7-methyl-[1,2,4]triazolo[1,5-a]pyridin-6-yl)-1H-pyrazolo[3,4-d]pyrimidin-6-amine]: the IC50 in series [1] was found to be 36 nM. For the same compound, the “Rat hepatocyte CLint” value in the series with Rat hepatocyte was determined as 5.3 μl/min/10^−6 cells. The compound also came in with a microsomal CLint at 1 μM in series [2] of 5.5 µL/min/mg. In the series with MDR1, BCRP, the efflux ratio at 120 min, 5 μM amounted to 2.4.
The compound `COCCCn1nc(C)c2cnc(Nc3cn4ncnc4cc3C)nc21` [Example 65, 1-(3-methoxypropyl)-3-methyl-N-(7-methyl-[1,2,4]triazolo[1,5-a]pyridin-6-yl)-1H-pyrazolo[3,4-d]pyrimidin-6-amine] showed an IC50 in series [1] of 8 nM. The “Rat hepatocyte CLint” value in the series with Rat hepatocyte worked out at 13.3 μl/min/10^−6 cells. This compound gave an intrinsic clearance (microsomal CLint) at 1 μM in series [2] of 17.1 µL/min/mg. In addition, the efflux ratio at 120 min, 5 μM with MDR1, BCRP stood at 2.
Take `Cc1cc2ncnn2cc1Nc1ncc2c(C)nn(CCCOC(F)(F)F)c2n1` [Example 66, 3-methyl-N-(7-methyl-[1,2,4]triazolo[1,5-a]pyridin-6-yl)-1-(3-(trifluoromethoxy)propyl)-1H-pyrazolo[3,4-d]pyrimidin-6-amine]: half-maximal inhibition in series [1] (IC50) required 2 nM. Also, the “Rat hepatocyte CLint” value in the series on Rat hepatocyte was 15.3 μl/min/10^−6 cells. Further, in series [2], the microsomal CLint at 1 μM is 120 µL/min/mg. The efflux ratio at 120 min, 5 μM in the series with MDR1, BCRP was 1.9.
In turn, `Cc1cc2ncnn2cc1Nc1ncc2c(C)nn(CCC#N)c2n1` [Example 72, 3-(3-methyl-6-((7-methyl-[1,2,4]triazolo[1,5-a]pyridin-6-yl)amino)-1H-pyrazolo[3,4-d]pyrimidin-1-yl)propanenitrile] returned an IC50 in series [1] of 1.8 nM. Besides, the “Rat hepatocyte CLint” value in the series on Rat hepatocyte is given as 1.0 μl/min/10^−6 cells. In series [2], this compound returned a microsomal CLint at 1 μM of 5.9 µL/min/mg. Moreover, in the series on MDR1, BCRP, the efflux ratio at 120 min, 5 μM is 7.5.
The matching figures for `Cc1cc2nccn2cc1Nc1ncc2c(C)nn(CC(C)C#N)c2n1` (stereo not shown) [Example 80, 2-methyl-3-(3-methyl-6-((7-methylimidazo[1,2-a]pyridin-6-yl)amino)-1H-pyrazolo[3,4-d]pyrimidin-1-yl)propanenitrile]: 2.1 nM, 9.3 μl/min/10^−6 cells, 23.5 µL/min/mg and 19.
Taken in the same sequence, the figures for `COc1cc(C)c(Nc2ncc3c(C)nn(C4CCOCC4)c3n2)cn1` [Example 89, N-(6-methoxy-4-methylpyridin-3-yl)-3-methyl-1-(tetrahydro-2H-pyran-4-yl)-1H-pyrazolo[3,4-d]pyrimidin-6-amine] were 6.2 nM, 9.6 μl/min/10^−6 cells, 10.1 µL/min/mg and 0.8.
`Cc1cc(-c2nn(C)c3cnc(Nc4cn5ncnc5cc4C)nc23)ccn1` [Example 102, 1-methyl-N-(7-methyl-[1,2,4]triazolo[1,5-a]pyridin-6-yl)-3-(2-methylpyridin-4-yl)-1H-pyrazolo[4,3-d]pyrimidin-5-amine] showed an IC50 in series [1] of 0.9 nM. Further, the “Rat hepatocyte CLint” value in the series on Rat hepatocyte is listed as 32.0 μl/min/10^−6 cells. The compound also returned a microsomal CLint at 1 μM in series [2] of 15 µL/min/mg. Besides, in the series on MDR1, BCRP, the efflux ratio at 120 min, 5 μM came to 14.
